Bridge positions count the residues as written; N and C are the ends. Ends that are not written are not given here. I, II: the chains in the order shown. * marks the point of attachment. Palmitoyl = CCCCCCCCCCCCCCCC(=O)*
Experiments:
[1] = test system: collagen II, COMP, aggrecan and Sox9 in human chondrocytes; assay: Western blot of ECM proteins after three days treatment; type: cell-based; conditions: 10 μM, three days in vitro
Procedure: For western blot of 4 h PA treatments, cells were seeded in 6-well plates at a density of 600,000 cells/well and cultured for 24 h. […] Cells were then treated with PA in solution for 4 h in vitro. For western blot of 3-day PA treatments, cells were seeded in 6-well plates at a density of 230,000 cells/well and cultured for 24 h. Cells were then treated with PA in solution for 3 days in vitro.
Protein was extracted from cells using Halt Protease and Phosphatase Inhibitor Cocktail (Thermo Scientific) and a BCA assay (Thermo Scientific) was performed to determine protein content of each sample. Cell protein was loaded into and separated using a 4-20% SDS-PAGE gel (Bio-Rad). It was then electrotransferred from the gel to a nitrocellulose membrane (Bio-Rad). The membranes were blocked with 10% milk solution (Bio-Rad) for 30 minutes followed by an overnight incubation with primary antibodies at 4° C. The following primary antibodies were used: rabbit anti-pSmad2 (1:1000, Cell Signaling), rabbit anti-Smad2 (1:1000, Cell Signaling), rabbit anti-Sox9 (1:500, Abcam), mouse anti-Aggrecan (1:500, ThermoFisher), rabbit anti-COMP/Cartilage oligomeric matrix protein (1:500, Abcam), mouse anti-Collagen II (1:500, ThermoFisher), and mouse anti-Actin (1:1000, Novus Bio). Membranes were then incubated with their corresponding secondary HRP-conjugated antibodies (1:1000, ThermoFisher). Protein signals were detected using Radiance Bioluminescent ECL substrate (Azure Biosystems). Densitometry analysis, standardized to total receptor content or actin as a control for protein loading, was performed using ImageJ software. For quantification, experimental triplicate samples were analyzed, and two different experiments were conducted.

[2] = test system: human chondrocytes encapsulated in PA hydrogels; assay: F-actin ICC and confocal microscopy of chondrocytes encapsulated in PA gels; type: cell-based; conditions: three days in vitro
Procedure: Fixed samples were permeabilized and blocked in a solution of 0.1% (v/v) Triton X-100 and 1% normal horse serum (Invitrogen) for 2 hours at room temperature. Samples were incubated with primary antibodies overnight at 4° C. The following primary antibodies were used: rabbit anti-Sox9 (1:500, Abcam), mouse anti-Aggrecan (1:500, ThermoFisher), mouse anti-Collagen II (1:500, ThermoFisher), and mouse anti-Nuclei (1:500, Sigma-Aldrich). The next day, samples were incubated with AlexaFluor 488 secondary antibody, AlexaFluor 555 secondary antibody, Phalloidin AlexaFluor 488, and/or Phalloidin AlexaFluor 633 (1:1000, Invitrogen) for 2-3 h at room temperature. For 2D cell culture, samples were then incubated with DAPI (1:1000, Invitrogen) for 10 minutes at room temperature. If not already on a glass coverslip, samples were mounted with Immu-Mount (Thermo Scientific) and imaged on a Nikon A1R Spectral microscope. Image analysis was performed using ImageJ software.
Chondrocytes were trypsinized and resuspended in growth media for counting, and then pelleted and resuspended to 6×10^7 cells/mL in growth media. The cell solution was mixed 1:2 v/v with sterile PA solution prepared at 3 wt % in 30 mM NaCl. For gels also encapsulating rhTGF-β1 protein (R&D Systems), soluble protein was added to PA solutions after thermal annealing. 120 μL of PA/cell solution was mixed thoroughly by pipetting gently and then placed into PDL-coated 12-well chamber slides (Ibidi). Sterile gelling solution, comprised of 110 mM NaCl, 3 mM KCl, and 25 mM CaCl2, was pipetted dropwise on top of the PA/cell solution and the gels were incubated for 30 minutes at 37° C. Following incubation, excess gelling solution was removed and 250 μL of growth media was added to each well. The media was removed after 3 days for LDH viability assays as described above. For ICC, after 3 days of in vitro culture, gels were fixed in 4% paraformaldehyde for 30 minutes at room temperature.

[3] = Transverse-relaxation (T2) NMR spectroscopy of PA assemblies; type: physicochemical; conditions: TGF PA co-assembled at 10 mol % with diluent backbone PA
Procedure: NMR spectra were acquired at 600 MHz on a Brucker Neo system with QCI-F cryoprobe. NMR spectra for PAs were recorded at 25° C. using TFA-d, H2O/D2O in 9/1 ratio (D2O contains 0.05 wt. % 3-(trimethylsilyl) propionic-2,2,3,3-d4 acid, sodium salt) as solvents. Chemical shifts are reported in part per million (ppm). The […] was 15 μs and typical spectra required 32 scans.
The spin-spin relaxation rates were measured using the Carr-Purcell-Gill-Meiboom pulse sequence with a delay time of 0.2 ms in a variable loop. The peak intensity data was fit to and exponential in the form:
[formula] where τ is the length of the delay time, R2 is the spin-spin relaxation rate and b are the baseline.^2 Cell Culture

[4] = Fluorescence anisotropy of TAMRA-labeled epitopes; type: physicochemical; conditions: 10 mol % co-assembly
Procedure: PA co-assemblies of diluent PA, TGF-β1 mimetic PA, and fluorescent dye-conjugated TGF-β1 mimetic PA were prepared in a 90:8:2 mol % ratio. The dye-conjugated PA was synthesized as previously described with a tetramethylrhodamine (TAMRA) molecule conjugated to the N-terminal amine of the TGF-β1 mimetic epitope. The PA solutions were prepared as previously described and diluted immediately before measurement to 100 μM PA, 100 μM CaCl2), and 30 mM NaCl. Fluorescence measurements were performed on an ISS PC1 photon counting steady-state fluorescence spectrometer equipped with a 300 W xenon arc lamp with power set to 18 A. Excitation slit widths of 1 mm (8 nm bandwidth) and emission slit widths of 0.5 mm (4 nm bandwidth) were used. Fluorescence anisotropy measurements were performed with λex=554 nm and λem=580 nm according to the equation:
[formula] Where F∥ is the intensity parallel to the excitation plane, F⊥ is the intensity perpendicular to the excitation plane, and g is the g-factor, which accounts for differences in emissions between the perpendicular and parallel gratings.^1 Measurements were taken in triplicate and averaged for final data analysis. Transverse-Relaxation Nuclear Magnetic Resonance Spectroscopy

Substance: TGF PA-a: backbone PA-a (SEQ ID NO: 7) conjugated to cyclic TGF-β1 mimetic peptide (SEQ ID NO: 1) by a linker; co-assembled with diluent Backbone PA-a (chain Palmitoyl-AAEEK-OH; peptide CESPLKRQC; disulfide II:1-II:9; not fully specified (some residues); also: co-assembled with diluent backbone PA-a)
- ECM synthesis (collagen II, COMP, aggrecan, Sox9) [1]: upregulated ECM synthesis significantly more than all other PA treatments
- levels of collagen II compared with native rhTGF-β1 protein [1]: significantly higher levels of collagen II
- morphology and distribution of encapsulated cells [2]: compact, elliptical morphologies and were well-dispersed
- cells within the bulk of the gel ([2]; equal concentrations of cells encapsulated): remained inside the gels and survived three days in vitro
- relaxation rate for the alkyl tail protons, compared with TGF PA-b assemblies [3]: nearly five times higher
- fluorescence anisotropy (epitope rotational diffusion), compared to TGF PA-b [4]: significantly lower anisotropy values

From US12570709B2, “Self-assembling peptide amphiphiles displaying a transforming growth factor beta 1 (TGF-ß1) mimetic epitope” (Northwestern University, priority 2021, dated 2026)
